# Measurements reported in PMC8132114 (ACS combinatorial science, 2019).
# *1 amine or outer side, *2 acyl side, *3 side chain or, on linkers, in order; H or OH if unused. Where a SMILES comes first, the peptide text is derived from it. [ ]: non-standard residue; d: D form. The star is where a group is joined. X1 = O=C([C@H](CCON=Cc1c(Cl)cncc1Cl)N[*:1])[*:2]; Biotin = O=C1N[C@H]2[C@H](CS[C@H]2CCCCC(=O)*)N1; pY = N[C@@H](Cc1ccc(OP(=O)(O)O)cc1)C(=O)O; Ahx = NCCCCCC(=O)O
# Target: VH1 C110S
# Type: binding, Variola major
# Conditions: pH 6.2
smiles,measurement,value
CC(C)[C@H](NC(=O)CCCCCNC(=O)CCCC[C@@H]1SC[C@@H]2NC(=O)N[C@@H]21)C(=O)N[C@@H](CC(=O)O)C(=O)N[C@@H](C)C(=O)N[C@@H](CC(=O)O)C(=O)N[C@@H](CCC(=O)O)C(=O)N[C@@H](Cc1ccc(OP(=O)(O)O)cc1)C(=O)N[C@@H](CCON=Cc1c(Cl)cncc1Cl)C(N)=O [Peptide 6f-w202] ({Biotin-Ahx}-VDADE[pY][X1]-NH2),Kd,73 ± 27 nM
